The values that follow come from ChEMBL document CHEMBL1141009, “Synthesis of BODIPY-labeled alkylphosphocholines with leishmanicidal activity, as fluorescent analogues of miltefosine” (2008).

The subject of the assay is Leishmania donovani. In words: Antileishmanial activity against Leishmania donovani promastigotes. Type of assay: functional. As to conditions: read-out: LD50 (the source's name).

As to `CCC1=C(C)C2=Cc3c(C)c(CCCCCCCCCCCOP(=O)([O-])OCC[N+](C)(C)C)c(C)n3[B-](F)(F)[N+]2=C1C`, the LC50 amounted to 4.3 µM.
The value for `CCCCCCCCCCCCCCCCOP(=O)([O-])OCC[N+](C)(C)C` [MILTEFOSINE] was 6.5 µM.
As for `CC1=CC(C)=[N+]2C1=Cc1c(C)c(CCCCCCCCCCCOP(=O)([O-])OCC[N+](C)(C)C)c(C)n1[B-]2(F)F`, the figure is 5.2 µM.
